Assays:
[1] = system: L. mexicana promastigotes; test: Light microscopy of cell morphology; type: cell-based, Leishmania (L.) mexicana
Experimental: Preliminary investigations into the mechanism of action for compounds (S)-9a, (S)-9b and (S,R)-11 were carried out using L. mexicana promastigotes. Light microscopy-based techniques were employed to further explore compound activity in a different, related Leishmania species. […] A solvent-only control using 0.1% (v/v) DMSO led to no significant effects. Cell cultures were examined by light microscopy to identify any morphological changes resulting from compound treatment (Figure 2B). […] Cells treated with the BI and BBI compounds develop a changed morphology with a spherical cell body or shortened flagellum. This effect is observed in 25% of the population for compound (S)-9a, to a greater extent (66%) for (S)-9b, and 27% for compound (S,R)-11. An abnormal number and position of Ks and Ns were often observed, with Ks and Ns sometimes less well-defined by Hoechst 33342 staining. […]
If the radar plot falls completely within the pink area, the compounds is predicted to have good oral […]
Figure S1. Bioavailability radars for hit compounds as generated by the SwissADME Webtool.
General Experimental Considerations
MTT was obtained from Molecular Probes® (Invitrogen™). Foetal calf serum (FCS, 10500064), M199 medium (M199 containing Earle’s salts and L-glutamine, 31100019), were purchased from Gibco. Hemin (H9039) was obtained from Sigma Aldrich. The FilterMax F5 Multi-Mode Microplate Reader spectrofluorimeter (Molecular Devices) was used to obtain all absorbance readings.
Microscopy was performed with a widefield fluorescence microscope (Axio Observer A1, Zeiss) using a 63× NA 1.4 Plan-Apochromat oil immersion objective lens and a 120V metal halide fluorescence light source (Zeiss, HXP 120V) with a Hamamatsu ORCA-Flash4.0 camera. Standard fluorescence microscopy was performed with a Green (ThorLabs, MDF-GFP2) and/or Blue (Zeiss, 49) filter cube. […]

[2] = system: T. cruzi trypomastigotes; test: Antitrypomastigote assay (T. cruzi), resazurin; type: cell-based, Trypanosoma (T.) cruzi; conditions: Trypanosoma cruzi, 24 h, ± SD, resazurin, read-out: T. cruzi IC50 trypomastigotes
Experimental: (§1) T. cruzi also assumes several cell morphologies during its lifecycle, which differ between the insect vector and mammalian host. In the latter environment, the parasite transitions between extracellular bloodstream trypomastigotes and intracellular amastigotes; both forms are clinically relevant, particularly during the acute stage of Chagas disease.[34] In this work, antitrypanosomal activity was tested against both the amastigote form (evaluated microscopically using an ex vivo intracellular model using mice macrophages) and the trypomastigote form (using the resazurin in vitro assay).[33],[35] […] In silico predictions of pharmacokinetic profiles were carried out using the SwissADME webtool (see the Supporting Information for details).[36] […]
(§2) […] Cultivation was performed in 2% fetal calf serum supplemented RPMI-1640 medium.
(§3) The trypomastigotes were maintained in a humidified incubator at 37 °C and with 5% CO2. […]
(§4) Biological activity assays […]
The half inhibitory concentration (IC50) was determined from a sigmoidal regression of the concentration-response curves generated in GraphPadPrism7. […]
Treatment of the cells with selected compounds (serially diluted 1.2 to 150 μM) was performed in a humidified incubator in RPMI 1640 medium for 24 h at 37 °C and with 5% CO2. Resazurin (0.011% in PBS) was added subsequently to verify parasite viability. Benznidazole was used as a standard drug. The optical density was determined at 570 nm using the FilterMax F5 (Molecular Devices). […]

[3] = system: T. cruzi amastigotes; test: Antiamastigote assay (T. cruzi), ex vivo intracellular model using mice macrophages, microscopy; type: cell-based, Trypanosoma (T.) cruzi; conditions: Trypanosoma cruzi, Peritoneal macrophage, 48 h, ± SD, read-out: T. cruzi IC50 amastigotes
Experimental: as §1, §2, §3
Peritoneal macrophages were obtained via washing the peritoneal cavity of BALB/c mice with 10% foetal calf serum supplemented RPMI-1640 medium (pH 7.2). The macrophages were maintained in a humidified incubator at 37 °C and with 5% CO2.
as §4
Peritoneal macrophages (1 × 10^5 cells/well) obtained from the peritoneal cavity of BALB/C mice were added to 16-well chambers (NUNC, Thermo Fischer Scientific). The cells were infected with trypomastigotes (10:1 parasites/macrophage) for 2 h. Then treatment of the infected macrophages with selected compounds (serially diluted 1.2 to 100 μM) was performed in a humidified incubator for 48 h at 37 °C and with 5% CO2. The treated cells were fixed on slides using methanol, stained with Giemsa and observed under a light microscope (EVOS M5000, Thermo, USA) with digital image equipment. The infection index was used in order to determine the half inhibitory concentration (IC50) (no. infected macrophages × no. amastigotes / total no.

**Q.** `COc1cc2c(cc1OC)[C@@H](Cc1ccc(Oc3cc(C[C@H]4c5cc(OC)c(OC)cc5CCN4C)ccc3OC)cc1)N(C)CC2` [(S,R)-11, (−)-O,O′-dimethylgrisabine] was tested. Which “Abnormal morphology (spherical cell body or shortened flagellum), share of population” value ([1]; 5 μM) did it give?
**A.** 27%

**Q.** What about the IC50 [2] of the same molecule?
**A.** 2.6 ± 2.9 µM

**Q.** And the IC50 [3]?
**A.** 2.2 ± 0.7 µM

**Q.** Which “Abnormal morphology (spherical cell body or shortened flagellum), share of population” value ([1]; 50 μM) does the source give for `COc1cc2c(cc1OC)[C@H](Cc1ccc(Br)cc1)N(C)CC2` [(S)-9a] here?
**A.** 25%

**Q.** And the IC50 [2]?
**A.** 14.4 ± 5.5 µM

**Q.** What about the IC50 [3] of the same molecule?
**A.** 25.1 ± 3.1 µM

**Q.** What does the source list for `COc1cc2c(cc1OC)[C@H](Cc1ccc(OC)c(OCc3ccccc3)c1)N(C)CC2` [(S)-9b]?
**A.** Abnormal morphology (spherical cell body or shortened flagellum), share of population ([1]; 50 μM): 66%; IC50 [2]: 57.7 ± 2.3 µM; IC50 [3]: 12.2 ± 0.5 µM

Source: article PMC10900488, “Synthesis and Evaluation of (Bis)benzyltetrahydroisoquinoline Alkaloids as Antiparasitic Agents” (JACS Au, 2024)
